Values after ≈ are worked out from the molar mass of the structure shown.
Each compound was assayed on HeLa (assay: Cytotoxicity against human HeLa cells after 3 days by MTT assay). Details: 72 h.
Type: functional, cell-based
Compound `CO[C@H]1c2c([nH]c3c4c(ccc23)OC(C)(C)C=C4)C(C)(C)[C@@H]2C[C@]34CCCN3C(=O)[C@]12NC4=O` [NOTOAMIDE F] has an IC50 greater than 50 µg/mL.
Work on `CC1(C)C=Cc2c(ccc3c4c([nH]c23)C(C)(C)[C@@H]2C[C@]35CCCN3C(=O)[C@]2(NC5=O)C4=O)O1` [NOTOAMIDE I] yielded an IC50 of 21 µg/mL (≈ 47.1 µM).
`C=CC(C)(C)[C@]1(C[C@@H]2NC(=O)[C@@H]3CCCN3C2=O)C(=O)Nc2cc(O)ccc21` [NOTOAMIDE J] showed an IC50 greater than 50 µg/mL.
`C=CC(C)(C)[C@@]12Nc3c(ccc4c3C=CC(C)(C)O4)[C@]1(O)C[C@]1(O)C(=O)N3CCC[C@H]3C(=O)N21` [NOTOAMIDE K] was tested, and the IC50 was greater than 50 µg/mL.
